Measurements: PubChem BioAssay AID328 (DTP/NCI, 2004)
“And” between values parts separate entries of the source, which are not always exact repeats. Identical values can stand only once. Inconclusive results and toxic doses are left out.

Test system: BDF1 mice, P388 leukemia ip, median survival T/C
Assay: NCI In Vivo Anticancer Drug Screen. Data for tumor model P388 Leukemia (intraperitoneal) in B6D2F1 (BDF1) mice
Conditions: endpoint: median survival time, higher = longer survival
Method in brief: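 Transplantable tumour in mice; compound vs vehicle dosing; survival scored; ratio of treated to control reported.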

[1] = dose: 50.0 mg/kg/injection, schedule: Q04DX003 (ip), vehicle: saline
[2] = dose: 100.0 mg/kg/injection, schedule: Q04DX003 (ip), vehicle: saline
[3] = dose: 100.0 mg/kg/injection, schedule: Q01DX009 (ip), vehicle: saline with Tween-80
[4] = dose: 25.0 mg/kg/injection, schedule: Q04DX003 (ip), vehicle: saline
[5] = dose: 100.0 mg/kg/injection, schedule: Q01DX009 (ip), vehicle: saline

Structure (SMILES): [N-]=[N+]=CC(=O)CCC(N)C(=O)O (stereo not drawn)
- T/C (dose: 0.03 mg/kg/injection, schedule: Q01DX010 (ip), vehicle: saline): 113 % of control
- T/C (dose: 0.1 mg/kg/injection, schedule: Q01DX010 (ip), vehicle: saline): 170 % of control
- T/C (dose: 0.1 mg/kg/injection, schedule: Q01DX010 (ip), vehicle: water): 150 % of control
- T/C (dose: 0.2 mg/kg/injection, schedule: Q01DX010 (ip), vehicle: saline): 95 % of control and 100 % of control
- T/C (dose: 0.2 mg/kg/injection, schedule: Q01DX010 (ip), vehicle: water): 190 % of control
- T/C (dose: 0.4 mg/kg/injection, schedule: Q01DX010 (ip), vehicle: water): 155 % of control
- T/C (dose: 0.6 mg/kg/injection, schedule: Q01DX010 (ip), vehicle: water): 95 % of control and 120 % of control
- T/C (dose: 0.8 mg/kg/injection, schedule: Q01DX010 (ip), vehicle: water): 100 % of control
- T/C (dose: 2.5 mg/kg/injection, schedule: Q02DX005 (oral), vehicle: other): 163 % of control
- T/C (dose: 5.0 mg/kg/injection, schedule: Q02DX005 (oral), vehicle: other): 159 % of control
- T/C (dose: 10.0 mg/kg/injection, schedule: Q02DX005 (oral), vehicle: other): 186 % of control
- T/C (dose: 15.0 mg/kg/injection, schedule: Q02DX005 (oral), vehicle: other): 218 % of control
- T/C (dose: 20.0 mg/kg/injection, schedule: Q02DX005 (oral), vehicle: other): 86 % of control

Structure (SMILES): CC1([CH2][Hg][I])COCC([CH2][Hg][I])O1 (stereo not drawn)
- T/C (dose: 2.87 mg/kg/injection, schedule: Q04DX003 (ip), vehicle: saline): 100 % of control
- T/C (dose: 5.0 mg/kg/injection, schedule: Q01DX009 (ip), vehicle: saline with Tween-80): 118 % of control
- T/C (dose: 5.0 mg/kg/injection, schedule: Q04DX003 (ip), vehicle: saline with Tween-80): 100 % of control
- T/C (dose: 5.75 mg/kg/injection, schedule: Q01DX009 (ip), vehicle: saline): 95 % of control
- T/C (dose: 5.75 mg/kg/injection, schedule: Q04DX003 (ip), vehicle: saline): 109 % of control
- T/C (dose: 10.0 mg/kg/injection, schedule: Q01DX009 (ip), vehicle: saline with Tween-80): 113 % of control
- T/C (dose: 10.0 mg/kg/injection, schedule: Q04DX003 (ip), vehicle: saline with Tween-80): 90 % of control
- T/C (dose: 11.5 mg/kg/injection, schedule: Q01DX009 (ip), vehicle: saline): 100 % of control
- T/C (dose: 11.5 mg/kg/injection, schedule: Q04DX003 (ip), vehicle: saline): 100 % of control
- T/C (dose: 17.0 mg/kg/injection, schedule: Q04DX003 (ip), vehicle: saline): 100 % of control
- T/C (dose: 20.0 mg/kg/injection, schedule: Q01DX009 (ip), vehicle: saline with Tween-80): 95 % of control
- T/C (dose: 20.0 mg/kg/injection, schedule: Q04DX003 (ip), vehicle: saline with Tween-80): 118 % of control
- T/C (dose: 26.0 mg/kg/injection, schedule: Q04DX003 (ip), vehicle: saline): 118 % of control

Structure (SMILES): Cc1nnc(NC2=NCCO2)s1
- T/C [1]: 86 % of control
- T/C [2]: 90 % of control
- T/C (dose: 200.0 mg/kg/injection, schedule: Q04DX003 (ip), vehicle: saline): 90 % of control

Structure (SMILES): NC(=S)N/N=C/C(=N\NC(N)=S)C(O)C(O)C(O)CO (stereo not drawn)
- T/C (dose: 25.0 mg/kg/injection, schedule: Q01DX009 (ip), vehicle: saline with Tween-80): 100 % of control
- T/C (dose: 50.0 mg/kg/injection, schedule: Q01DX009 (ip), vehicle: saline with Tween-80): 95 % of control
- T/C [3]: 100 % of control
- T/C (dose: 100.0 mg/kg/injection, schedule: Q04DX003 (ip), vehicle: saline sonified): 100 % of control

Structure (SMILES): NC(=O)CNC1=C(N2CC2)C(=O)C(NCC(N)=O)=C(N2CC2)C1=O
- T/C (dose: 2.0 mg/kg/injection, schedule: Q01DX009 (ip), vehicle: saline): 171 % of control
- T/C (dose: 4.0 mg/kg/injection, schedule: Q01DX009 (ip), vehicle: saline): 166 % of control
- T/C (dose: 8.0 mg/kg/injection, schedule: Q01DX009 (ip), vehicle: saline): 116 % of control

Structure (SMILES): Cc1cc(N(C)C)c(C=O)c(C)c1C=O
- T/C (dose: 100.0 mg/kg/injection, schedule: Q04DX002 (ip), vehicle: saline with Tween-80): 113 % of control
- T/C (dose: 200.0 mg/kg/injection, schedule: Q04DX002 (ip), vehicle: saline with Tween-80): 110 % of control
- T/C (dose: 400.0 mg/kg/injection, schedule: Q04DX002 (ip), vehicle: saline with Tween-80): 87 % of control

Structure (SMILES): Nc1nc(N)c(Nc2ccc(Cl)cc2)c(Cl)n1
- T/C (dose: 100.0 mg/kg/injection, schedule: Q01DX001 (ip), vehicle: saline with Tween-80): 88 % of control
- T/C (dose: 200.0 mg/kg/injection, schedule: Q01DX001 (ip), vehicle: saline with Tween-80): 89 % of control

Structure (SMILES): COC(=O)CCCCCC(O)C1CCC2OC(=O)CC21C (stereo not drawn)
- T/C (dose: 100.0 mg/kg/injection, schedule: Q04DX003 (ip), vehicle: saline with Tween-80): 100 % of control
- T/C (dose: 200.0 mg/kg/injection, schedule: Q04DX003 (ip), vehicle: saline with Tween-80): 100 % of control
- T/C (dose: 400.0 mg/kg/injection, schedule: Q04DX003 (ip), vehicle: saline with Tween-80): 100 % of control

Structure (SMILES): O=[N+]([O-])c1ccc2c(c1)Cc1cc(Br)ccc1-2
- T/C (dose: 100.0 mg/kg/injection, schedule: Q04DX003 (ip), vehicle: Klucel (hydroxypropylcellulose) (HPC)): 100 % of control
- T/C (dose: 400.0 mg/kg/injection, schedule: Q04DX003 (ip), vehicle: Klucel (hydroxypropylcellulose) (HPC)): 100 % of control

Structure (SMILES): CC([NH-])=O.CC([NH-])=O.[Pt+2]
- T/C (dose: 25.0 mg/kg/injection, schedule: Q01DX009 (ip), vehicle: water): 96 % of control
- T/C (dose: 50.0 mg/kg/injection, schedule: Q01DX009 (ip), vehicle: water): 104 % of control
- T/C (dose: 100.0 mg/kg/injection, schedule: Q01DX009 (ip), vehicle: water): 102 % of control
- T/C (dose: 200.0 mg/kg/injection, schedule: Q01DX009 (ip), vehicle: water): 107 % of control
- T/C (dose: 300.0 mg/kg/injection, schedule: Q01DX009 (ip), vehicle: water): 112 % of control

Structure (SMILES): CN(CCCl)Cc1ccccc1
- T/C (dose: 0.04 mg/kg/injection, schedule: Q01DX009 (ip), vehicle: saline): 95 % of control
- T/C (dose: 0.07 mg/kg/injection, schedule: Q01DX009 (ip), vehicle: saline): 87 % of control
- T/C (dose: 22.0 mg/kg/injection, schedule: Q04DX003 (ip), vehicle: saline): 104 % of control
- T/C [4]: 109 % of control
- T/C (dose: 33.0 mg/kg/injection, schedule: Q01DX009 (ip), vehicle: saline sonified): 116 % of control
- T/C (dose: 35.0 mg/kg/injection, schedule: Q04DX003 (ip), vehicle: saline): 109 % of control
- T/C (dose: 50.0 mg/kg/injection, schedule: Q01DX009 (ip), vehicle: saline sonified): 120 % of control
- T/C (dose: 50.0 mg/kg/injection, schedule: Q01DX009 (ip), vehicle: saline): 210 % of control
- T/C (dose: 75.0 mg/kg/injection, schedule: Q01DX009 (ip), vehicle: saline sonified): 195 % of control
- T/C [5]: 155 % of control
- T/C (dose: 150.0 mg/kg/injection, schedule: Q04DX003 (ip), vehicle: saline): 175 % of control

Structure (SMILES): c1nc(N2CC2)c2cnn(C3CCCCO3)c2n1 (stereo not drawn)
- T/C [4]: 109 % of control
- T/C [1]: 100 % of control
- T/C (dose: 100.0 mg/kg/injection, schedule: Q01DX009 (ip), vehicle: Klucel (hydroxypropylcellulose) (HPC)): 95 % of control
- T/C [2]: 100 % of control
- T/C (dose: 150.0 mg/kg/injection, schedule: Q04DX003 (ip), vehicle: Klucel (hydroxypropylcellulose) (HPC)): 120 % of control
- T/C (dose: 200.0 mg/kg/injection, schedule: Q01DX009 (ip), vehicle: Klucel (hydroxypropylcellulose) (HPC)): 116 % of control
- T/C (dose: 225.0 mg/kg/injection, schedule: Q04DX003 (ip), vehicle: Klucel (hydroxypropylcellulose) (HPC)): 120 % of control

Structure (SMILES): Cn1cc(NC(=O)c2cc(NC(=O)c3cc(NC=O)cn3C)cn2C)cc1C(=O)NCCC(=N)N
- T/C (dose: 110.0 mg/kg/injection, schedule: Q04DX003 (ip), vehicle: Klucel (hydroxypropylcellulose) (HPC)): 113 % of control
- T/C (dose: 170.0 mg/kg/injection, schedule: Q04DX003 (ip), vehicle: Klucel (hydroxypropylcellulose) (HPC)): 109 % of control
- T/C (dose: 255.0 mg/kg/injection, schedule: Q04DX003 (ip), vehicle: Klucel (hydroxypropylcellulose) (HPC)): 104 % of control

Structure (SMILES): NC(N)=NCCNC(=O)C1CCC(N)C1 (stereo not drawn)
- T/C (dose: 0.08 mg/kg/injection, schedule: Q01DX009 (ip), vehicle: saline): 97 % of control
- T/C (dose: 0.16 mg/kg/injection, schedule: Q01DX009 (ip), vehicle: saline): 97 % of control
- T/C (dose: 0.32 mg/kg/injection, schedule: Q01DX009 (ip), vehicle: saline): 99 % of control
- T/C (dose: 0.63 mg/kg/injection, schedule: Q01DX009 (ip), vehicle: saline): 100 % of control

Structure (SMILES): O=N[O-].O=N[O-].[NH-]CC[NH-].[Pt+2]
- T/C [4]: 95 % of control
- T/C [1]: 108 % of control
- T/C [5]: 90 % of control
- T/C [2]: 95 % of control

Structure (SMILES): Cc1ccc(-c2c(O)c(Br)c(-c3ccc(C)cc3C)c(O)c2Br)c(C)c1
- T/C [3]: 100 % of control
- T/C (dose: 200.0 mg/kg/injection, schedule: Q01DX009 (ip), vehicle: saline with Tween-80): 100 % of control
- T/C (dose: 400.0 mg/kg/injection, schedule: Q01DX009 (ip), vehicle: saline with Tween-80): 100 % of control
